The structures appear in SMILES notation. Values after ≈ are worked out from the molar mass of the structure shown.

Test [1] deals with Staphylococcus aureus V41. The experiment in a line: MIC, standard agar-dilution assay. In kind it is cell-based.
The subject of test [2] is Staphylococcus aureus X400. The experiment in a line: MIC, standard agar-dilution assay. In kind it is cell-based.
Test [3] relates to Staphylococcus aureus S13E. In kind it is cell-based. Conditions: agar dilution.
Test [4] relates to Staphylococcus epidermidis EPI1. The format is cell-based. The note with it: agar dilution. For orientation: In agar dilution, organisms are placed on agar that contains the substance at set levels.
Test [5] deals with Staphylococcus epidermidis 222. The experiment in a line: MIC, standard agar-dilution assay. The format is cell-based.
In test [6] the test system is Streptococcus pyogenes C203. The experiment in a line: MIC, standard agar-dilution assay. In kind it is cell-based.
Test [7] has as its system Streptococcus faecium ATCC 9790. The experiment in a line: MIC, standard agar-dilution assay. In kind it is cell-based.
The test system of test [8] is Streptococcus sp. group D 2041. The experiment in a line: MIC, standard agar-dilution assay. The format is cell-based.
Test [9] has as its system Haemophilus influenzae C.L. The experiment in a line: MIC, standard agar-dilution assay. The format is cell-based.
In test [10] the test system is Haemophilus influenzae 76. The experiment in a line: MIC, standard agar-dilution assay. The format is cell-based.
A further test relates to Escherichia coli N10. The experiment in a line: MIC, standard agar-dilution assay. The format is cell-based.
The subject of a further test is Escherichia coli EC14. The experiment in a line: MIC, standard agar-dilution assay. The format is cell-based.
For another test, the system named is Escherichia coli TEM. The experiment in a line: MIC, standard agar-dilution assay. The format is cell-based.
The test system of test [11] is Klebsiella pneumoniae X26. Nature of the test: MIC, standard agar-dilution assay. The format is cell-based.
In test [12] the test system is Klebsiella pneumoniae X68. Nature of the test: MIC, standard agar-dilution assay. In kind it is cell-based.
Test [13] has as its system Klebsiella pneumoniae KAE. Nature of the test: MIC, standard agar-dilution assay. The format is cell-based.
The subject of test [14] is Staphylococcus aureus NRRL B313. The note with it: agar dilution.
The test system of another test is Staphylococcus aureus. The note with it: Staphylococcus aureus infection in mice; two doses, administered subcutaneously.
The subject of another test is Streptococcus pyogenes. The note with it: Streptococcus pyogenes infection in mice; two doses, administered subcutaneously.
In the next test the test system is Streptococcus pneumoniae. The note with it: Streptococcus pneumoniae infection in mice; two doses, administered subcutaneously.
Test [15] deals with Streptococcus pneumoniae Park 1. In kind it is cell-based. The note with it: agar dilution.

`CCCCCCCCNC1(C)CC(OC2C(Oc3c4cc5cc3Oc3ccc(cc3Cl)C(O)C3NC(=O)C(NC(=O)C5NC(=O)C(CC(N)=O)NC(=O)C(NC(=O)C(CC(C)C)NC)C(O)c5ccc(c(Cl)c5)O4)c4ccc(O)c(c4)-c4c(O)cc(O)cc4C(C(=O)O)NC3=O)OC(CO)C(O)C2O)OC(C)C1O` (stereo not drawn) [Compound 7, N^van --(n-octyl)vancomycin]: the MIC in [1] is 0.25 µg/mL (≈ 0.16 µM); in test [2], 0.25 µg/mL (≈ 0.16 µM); in test [3], 0.25 µg/mL (≈ 0.16 µM); in [4] it was 1 µg/mL (≈ 0.64 µM); in [5], 0.5 µg/mL (≈ 0.32 µM); in test [6], 0.125 µg/mL (≈ 0.0801 µM). Also, the MIC in [7] was 0.25 µg/mL (≈ 0.16 µM); in test [8], 0.5 µg/mL (≈ 0.32 µM); in [9], 32 µg/mL (≈ 20.5 µM); in test [10], 32 µg/mL (≈ 20.5 µM); against Escherichia coli N10, greater than 128 µg/mL; in the test with Escherichia coli EC14, greater than 128 µg/mL. The MIC with Escherichia coli TEM is greater than 128 µg/mL; in test [11], greater than 128 µg/mL; in test [12] it was greater than 128 µg/mL; in [13] it was greater than 128 µg/mL; in test [14] it was 0.25 µg/mL (≈ 0.16 µM). Also, the ED50 is listed as 3.4 mg/kg/2 in the test on Staphylococcus aureus, 0.98 mg/kg/2 in the test on Streptococcus pyogenes and 0.44 mg/kg/2 with Streptococcus pneumoniae.

`CCCCCCCCN(C)C(CC(C)C)C(=O)NC1C(=O)NC(CC(N)=O)C(=O)NC2C(=O)NC3C(=O)NC(C(=O)NC(C(=O)O)c4cc(O)cc(O)c4-c4cc3ccc4O)C(O)c3ccc(c(Cl)c3)Oc3cc2cc(c3OC2OC(CO)C(O)C(O)C2OC2CC(C)(N)C(O)C(C)O2)Oc2ccc(cc2Cl)C1O` (stereo not drawn) [Compound 8, N^leu --(n-octyl)vancomycin]: the MIC in [1] was found to be 0.5 µg/mL (≈ 0.32 µM); in test [2], 1 µg/mL (≈ 0.64 µM); in [3], 1 µg/mL (≈ 0.64 µM); in test [4], 2 µg/mL (≈ 1.28 µM); in test [5], 1 µg/mL (≈ 0.64 µM); in [6] it was 0.5 µg/mL (≈ 0.32 µM). Besides, the MIC was 1 µg/mL (≈ 0.64 µM) in test [15]; 1 µg/mL (≈ 0.64 µM) in test [7]; 2 µg/mL (≈ 1.28 µM) in [8]; 128 µg/mL (≈ 82 µM) in test [9]; 128 µg/mL (≈ 82 µM) in test [10]; greater than 128 µg/mL against Escherichia coli N10. For the same molecule, the MIC against Escherichia coli EC14 is greater than 128 µg/mL; in the test on Escherichia coli TEM, greater than 128 µg/mL; in test [11] it was greater than 128 µg/mL; in test [12] it was greater than 128 µg/mL; in test [13], greater than 128 µg/mL; in test [14], 0.5 µg/mL (≈ 0.32 µM). Moreover, the values for the ED50 in the test on Staphylococcus aureus, in the test with Streptococcus pyogenes and in the test with Streptococcus pneumoniae were greater than 5 mg/kg/2, 3.7 mg/kg/2 and 3.1 mg/kg/2, respectively.

Regarding `CCN(CC)c1ccc(CNC2(C)CC(OC3C(Oc4c5cc6cc4Oc4ccc(cc4Cl)C(O)C4NC(=O)C(NC(=O)C6NC(=O)C(CC(N)=O)NC(=O)C(NC(=O)C(CC(C)C)NC)C(O)c6ccc(c(Cl)c6)O5)c5ccc(O)c(c5)-c5c(O)cc(O)cc5C(C(=O)O)NC4=O)OC(CO)C(O)C3O)OC(C)C2O)cc1` (stereo not drawn) [Example 77, N^van ( -p-diethylaminobenzyl)vancomycin], the MIC in test [1] was 0.5 µg/mL (≈ 0.31 µM); in test [2] it was 0.5 µg/mL (≈ 0.31 µM); in test [3] it was 0.5 µg/mL (≈ 0.31 µM); in test [4] it was 1 µg/mL (≈ 0.621 µM); in test [5] it was 0.5 µg/mL (≈ 0.31 µM); in test [6], 0.25 µg/mL (≈ 0.155 µM). Also, the MIC is 0.125 µg/mL (≈ 0.0776 µM) in [15]; 0.5 µg/mL (≈ 0.31 µM) in test [7]; 1 µg/mL (≈ 0.621 µM) in [8]; 128 µg/mL (≈ 79.5 µM) in test [9]; 128 µg/mL (≈ 79.5 µM) in test [10]; greater than 128 µg/mL with Escherichia coli N10. The MIC is greater than 128 µg/mL against Escherichia coli EC14; greater than 128 µg/mL in the test on Escherichia coli TEM; greater than 128 µg/mL in [11]; greater than 128 µg/mL in test [12]; greater than 128 µg/mL in [13]; 0.25 µg/mL (≈ 0.155 µM) in test [14]. For the same molecule, the ED50 in the test with Staphylococcus aureus was found to be 1.1 mg/kg/2; in the test on Streptococcus pyogenes it was 0.8 mg/kg/2; with Streptococcus pneumoniae it was 1.2 mg/kg/2.

On to `CNC(CC(C)C)C(=O)NC1C(=O)NC(CC(N)=O)C(=O)NC2C(=O)NC3C(=O)NC(C(=O)NC(C(=O)O)c4cc(O)cc(O)c4-c4cc3ccc4O)C(O)c3ccc(c(Cl)c3)Oc3cc2cc(c3OC2OC(CO)C(O)C(O)C2OC2CC(C)(NCc3ccc(Br)cc3)C(O)C(C)O2)Oc2ccc(cc2Cl)C1O` (stereo not drawn) [Example 80, N^van --( -p-bromobenzyl)vancomycin], for which the MIC in [1] was found to be 0.5 µg/mL (≈ 0.309 µM); in test [2], 0.25 µg/mL (≈ 0.154 µM); in [3], 0.25 µg/mL (≈ 0.154 µM); in [4], 1 µg/mL (≈ 0.618 µM); in test [5], 0.5 µg/mL (≈ 0.309 µM); in [6], 0.25 µg/mL (≈ 0.154 µM). The MIC in [15] is 0.03 µg/mL (≈ 0.0185 µM); in test [7], 0.25 µg/mL (≈ 0.154 µM); in test [8] it was 1 µg/mL (≈ 0.618 µM); in [9], 64 µg/mL (≈ 39.5 µM); in [10] it was 64 µg/mL (≈ 39.5 µM); against Escherichia coli N10, greater than 128 µg/mL. For the same molecule, the MIC with Escherichia coli EC14 was greater than 128 µg/mL; in the test with Escherichia coli TEM, greater than 128 µg/mL; in test [11] it was greater than 128 µg/mL; in test [12] it was greater than 128 µg/mL; in [13] it was greater than 128 µg/mL; in test [14], 0.25 µg/mL (≈ 0.154 µM). Also, the ED50 with Staphylococcus aureus worked out at 1.34 mg/kg/2; in the test on Streptococcus pyogenes it was 0.78 mg/kg/2; in the test with Streptococcus pneumoniae, 0.41 mg/kg/2.

In the case of `CCCCCCCCCCCCNC1(C)CC(OC2C(Oc3c4cc5cc3Oc3ccc(cc3Cl)C(O)C3NC(=O)C(NC(=O)C5NC(=O)C(CC(N)=O)NC(=O)C(NC(=O)C(CC(C)C)NC)C(O)c5ccc(c(Cl)c5)O4)c4ccc(O)c(c4)-c4c(O)cc(O)cc4C(C(=O)O)NC3=O)OC(CO)C(O)C2O)OC(C)C1O` (stereo not drawn) [Compound 1, N^van --(n-dodecyl)vancomycin], the MIC in test [1] amounted to 0.25 µg/mL (≈ 0.155 µM); in [2], 0.25 µg/mL (≈ 0.155 µM); in test [3] it was 0.25 µg/mL (≈ 0.155 µM); in test [4], 0.5 µg/mL (≈ 0.309 µM); in test [6], 0.125 µg/mL (≈ 0.0773 µM); in test [15], 0.25 µg/mL (≈ 0.155 µM). Also, the MIC in [7] is 0.25 µg/mL (≈ 0.155 µM); in [8], 0.125 µg/mL (≈ 0.0773 µM); in test [9], greater than 128 µg/mL; in test [10], greater than 128 µg/mL; in the test on Escherichia coli N10, greater than 128 µg/mL; in the test with Escherichia coli EC14, greater than 128 µg/mL. For the same molecule, the MIC against Escherichia coli TEM is greater than 128 µg/mL; in test [11], greater than 128 µg/mL; in [12] it was greater than 128 µg/mL; in test [13] it was greater than 128 µg/mL; in test [14], 0.25 µg/mL (≈ 0.155 µM). Also, the ED50 is reported as greater than 5 mg/kg/2 in the test with Staphylococcus aureus, 0.31 mg/kg/2 with Streptococcus pyogenes and 0.42 mg/kg/2 in the test with Streptococcus pneumoniae.

Consider `CCCCCCCCCCNC1(C)CC(OC2C(Oc3c4cc5cc3Oc3ccc(cc3Cl)C(O)C3NC(=O)C(NC(=O)C5NC(=O)C(CC(N)=O)NC(=O)C(NC(=O)C(CC(C)C)NC)C(O)c5ccc(c(Cl)c5)O4)c4ccc(O)c(c4)-c4c(O)cc(O)cc4C(C(=O)O)NC3=O)OC(CO)C(O)C2O)OC(C)C1O` (stereo not drawn) [Compound 2, N^van -(n-decyl)vancomycin], for which the MIC in test [1] was found to be 0.25 µg/mL (≈ 0.157 µM); in test [2], 0.25 µg/mL (≈ 0.157 µM); in test [3] it was 0.25 µg/mL (≈ 0.157 µM); in test [4] it was 0.25 µg/mL (≈ 0.157 µM); in [5], 0.25 µg/mL (≈ 0.157 µM); in test [6], 0.06 µg/mL (≈ 0.0377 µM). The MIC in test [15] was 0.125 µg/mL (≈ 0.0786 µM); in [7], 0.25 µg/mL (≈ 0.157 µM); in [8] it was 0.25 µg/mL (≈ 0.157 µM); in [9], 128 µg/mL (≈ 80.5 µM); in test [10], 128 µg/mL (≈ 80.5 µM); against Escherichia coli N10, greater than 128 µg/mL. In addition, the MIC (in the test with Escherichia coli EC14; in the test with Escherichia coli TEM; in test [11]; in test [12]; in test [13]) was greater than 128 µg/mL each time. For the same molecule, the ED50 in the test with Staphylococcus aureus is 1.8 mg/kg/2; in the test on Streptococcus pyogenes it was 1.6 mg/kg/2; in the test with Streptococcus pneumoniae it was 0.51 mg/kg/2.

The record behind these values is patent publication US4698327A, “Novel glycopeptide derivatives” (priority 1986, dated 1987).
